# Columns and labels:
# [1] = target: Substance-P receptor (Homo sapiens, UniProt P25103); experiment: In vitro inhibition of binding of [125I]-substance P to tachykinin receptor 1
# [2] = system: Gerbillinae; experiment: Inhibition of GR-73632-induced Gerbil foot tapping after immediate pretreatment iv; assay type: functional; conditions: read-out: ID50 (the source's name)
# [3] = system: Gerbillinae; experiment: Inhibition of GR-73632-induced Gerbil foot tapping after 24 hr pretreatment iv; assay type: functional; conditions: read-out: ID50 (the source's name)
# Sequence of Substance-P receptor (P25103 whole entry): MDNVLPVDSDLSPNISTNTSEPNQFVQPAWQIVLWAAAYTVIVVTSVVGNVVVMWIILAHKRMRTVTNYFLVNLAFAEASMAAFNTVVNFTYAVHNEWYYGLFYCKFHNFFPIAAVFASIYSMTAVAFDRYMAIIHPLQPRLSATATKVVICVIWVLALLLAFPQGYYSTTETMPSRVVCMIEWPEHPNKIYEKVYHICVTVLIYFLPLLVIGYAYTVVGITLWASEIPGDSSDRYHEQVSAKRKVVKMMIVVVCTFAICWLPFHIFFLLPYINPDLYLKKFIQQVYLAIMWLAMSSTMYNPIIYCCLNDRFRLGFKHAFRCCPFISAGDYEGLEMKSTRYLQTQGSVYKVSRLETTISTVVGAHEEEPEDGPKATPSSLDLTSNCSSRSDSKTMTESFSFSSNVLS
IC50 [1] [nM],SMILES,ED50 [2] [mg/kg],ED50 [3] [mg/kg]
0.21,C[C@@H](O[C@H]1OCCN(Cc2nn[nH]c2CN2CCCC2)[C@H]1c1ccc(F)cc1)c1cc(C(F)(F)F)cc(C(F)(F)F)c1,0.4,–
0.19,C[C@@H](OC1OCCN(Cc2n[nH]nc2CN2CCC2)[C@H]1c1ccc(F)cc1)c1cc(C(F)(F)F)cc(C(F)(F)F)c1 (stereo not given in full),0.4,–
0.35,CC(C)N(Cc1[nH]nnc1CN1CCO[C@H](O[C@H](C)c2cc(C(F)(F)F)cc(C(F)(F)F)c2)[C@@H]1c1ccc(F)cc1)C(C)C,1,–
–,C[C@@H](O[C@H]1OCCN(Cc2n[nH]c(=O)[nH]2)[C@H]1c1ccc(F)cc1)c1cc(C(F)(F)F)cc(C(F)(F)F)c1 [APREPITANT],0.4,0.3
0.25,C[C@@H](O[C@H]1OCCN(Cc2nn[nH]c2CN)[C@H]1c1ccc(F)cc1)c1cc(C(F)(F)F)cc(C(F)(F)F)c1,5.3,–
0.29,CNCc1nn[nH]c1CN1CCOC(O[C@H](C)c2cc(C(F)(F)F)cc(C(F)(F)F)c2)[C@@H]1c1ccc(F)cc1 (stereo not given in full),3.1,–
0.19,C[C@@H](OC1OCCN(Cc2n[nH]nc2CN(C)C)[C@H]1c1ccc(F)cc1)c1cc(C(F)(F)F)cc(C(F)(F)F)c1.Cl (stereo not given in full),0.2,0.3

# From ChEMBL document CHEMBL1134298, “An orally active, water-soluble neurokinin-1 receptor antagonist suitable for both intravenous and oral clinical administration” (J Med Chem, 2001)
